In PubChem BioAssay AID248 (DTP/NCI, 2004):
Several values for one entry are separate records, joined by “and”; a condition that tells them apart may be missing. Identical values can stand only once. Inconclusive results and toxic doses are left out. Rule as the data show it: active = T/C of 150% or more; inactive = T/C below 125%.

System: L1210 leukemia ip in BDF1 mice, survival T/C
Experiment: NCI In Vivo Anticancer Drug Screen. Data for tumor model L1210 Leukemia (intraperitoneal) in B6D2F1 (BDF1) mice
Settings: endpoint: mean survival time, higher = longer survival
Method in brief: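 Mice bearing the transplanted tumor received compound or vehicle. Survival of the treated group was divided by that of the vehicle-treated control group to give the ratio.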

[1] = dose: 100.0 mg/kg/injection, schedule: Q01DX009 (ip), vehicle: Klucel (hydroxypropylcellulose) (HPC)
[2] = dose: 200.0 mg/kg/injection, schedule: Q01DX009 (ip), vehicle: Klucel (hydroxypropylcellulose) (HPC)
[3] = dose: 400.0 mg/kg/injection, schedule: Q01DX009 (ip), vehicle: Klucel (hydroxypropylcellulose) (HPC)
[4] = dose: 50.0 mg/kg/injection, schedule: Q01DX009 (ip), vehicle: saline
[5] = dose: 100.0 mg/kg/injection, schedule: Q01DX009 (ip), vehicle: saline
[6] = dose: 100.0 mg/kg/injection, schedule: Q04DX003 (ip), vehicle: other
[7] = dose: 200.0 mg/kg/injection, schedule: Q04DX003 (ip), vehicle: other
[8] = dose: 400.0 mg/kg/injection, schedule: Q04DX003 (ip), vehicle: other
[9] = dose: 100.0 mg/kg/injection, schedule: Q01DX001 (ip), vehicle: carboxymethylcellulose (CMC)
[10] = dose: 200.0 mg/kg/injection, schedule: Q01DX001 (ip), vehicle: carboxymethylcellulose (CMC)
[11] = dose: 400.0 mg/kg/injection, schedule: Q01DX001 (ip), vehicle: carboxymethylcellulose (CMC)
[12] = dose: 100.0 mg/kg/injection, schedule: Q04DX003 (ip), vehicle: Klucel (hydroxypropylcellulose) (HPC)
[13] = dose: 200.0 mg/kg/injection, schedule: Q04DX003 (ip), vehicle: Klucel (hydroxypropylcellulose) (HPC)
[14] = dose: 400.0 mg/kg/injection, schedule: Q04DX003 (ip), vehicle: Klucel (hydroxypropylcellulose) (HPC)
[15] = dose: 100.0 mg/kg/injection, schedule: Q01DX009 (ip), vehicle: other
[16] = dose: 200.0 mg/kg/injection, schedule: Q01DX009 (ip), vehicle: other
[17] = dose: 400.0 mg/kg/injection, schedule: Q01DX009 (ip), vehicle: other

Measured: T/C

CCCCCCC[n+]1ccc(C#N)cc1
inactive: dose: 75.0 mg/kg/injection, schedule: Q01DX001 (ip), vehicle: saline 103 % of control

COc1ccc(NC(=O)N2CCN(c3ccccc3)CC2)c(OC)c1
inactive: [1] 102 % of control | [2] 96 % of control | [3] 96 % of control

CCN1CCc2ccccc2C1c1ccccc1 (configuration not stated)
inactive: dose: 25.0 mg/kg/injection, schedule: Q01DX009 (ip), vehicle: saline 104 % of control | [4] 103 % of control | [5] 106 % of control and 115 % of control

O=P1(CCc2ccc(Cl)cc2)CC(Br)C(Br)C1 (configuration not stated)
inactive: [6] 93 % of control | [7] 95 % of control | [8] 98 % of control

CCc1ccc(N=Nc2ccc(NC)cc2)cc1
inactive: [9] 98 % of control | [10] 93 % of control | [11] 98 % of control

O=NN(CCCl)C(=O)Nc1ccc2c3c(cccc13)-c1ccccc1-2
inactive: dose: 118.0 mg/kg/injection, schedule: Q01DX009 (ip), vehicle: carboxymethylcellulose (CMC) 111 % of control | dose: 177.0 mg/kg/injection, schedule: Q01DX009 (ip), vehicle: carboxymethylcellulose (CMC) 119 % of control | dose: 266.0 mg/kg/injection, schedule: Q01DX009 (ip), vehicle: carboxymethylcellulose (CMC) 113 % of control | dose: 600.0 mg/kg/injection, schedule: Q01DX001 (ip), vehicle: carboxymethylcellulose (CMC) 117 % of control | dose: 600.0 mg/kg/injection, schedule: Q01DX009 (ip), vehicle: carboxymethylcellulose (CMC) 98 % of control

CCC(=O)Nc1ccc(F)cc1
inactive: dose: 100.0 mg/kg/injection, schedule: Q01DX001 (ip), vehicle: Klucel (hydroxypropylcellulose) (HPC) 105 % of control | [1] 99 % of control | [12] 94 % of control | dose: 200.0 mg/kg/injection, schedule: Q01DX001 (ip), vehicle: Klucel (hydroxypropylcellulose) (HPC) 99 % of control | [2] 113 % of control | [13] 94 % of control | dose: 400.0 mg/kg/injection, schedule: Q01DX001 (ip), vehicle: Klucel (hydroxypropylcellulose) (HPC) 93 % of control | [3] 120 % of control | [14] 105 % of control

CC(C)(C)OC(=O)NN=C1CCC(C(C)(C)C)CC1 (configuration not stated)
inactive: dose: 100.0 mg/kg/injection, schedule: Q04DX003 (ip), vehicle: acetone 98 % of control | dose: 200.0 mg/kg/injection, schedule: Q04DX003 (ip), vehicle: acetone 96 % of control | dose: 400.0 mg/kg/injection, schedule: Q04DX003 (ip), vehicle: acetone 93 % of control

CNC(=O)OCCOC(=O)NC
inactive: dose: 100.0 mg/kg/injection, schedule: Q01DX001 (ip), vehicle: other 98 % of control | [15] 96 % of control | [6] 102 % of control | dose: 200.0 mg/kg/injection, schedule: Q01DX001 (ip), vehicle: other 109 % of control | [16] 102 % of control | [7] 97 % of control | dose: 400.0 mg/kg/injection, schedule: Q01DX001 (ip), vehicle: other 98 % of control | [17] 89 % of control | [8] 111 % of control

COC(=O)CC(O)(CC(=O)OC)C(=O)OC
inactive: [1] 93 % of control | [2] 104 % of control | [3] 93 % of control

O=[N+]([O-])c1ccc(CSCc2ccccc2)cc1
inactive: dose: 50.0 mg/kg/injection, schedule: Q01DX001 (ip), vehicle: carboxymethylcellulose (CMC) 102 % of control | [9] 102 % of control | [10] 109 % of control | [11] 98 % of control

Nc1nc2c(c(-c3ccc(Cl)cc3)n1)CN(Cc1ccccc1)C2=O
inactive: [4] 98 % of control | [5] 104 % of control | dose: 100.0 mg/kg/injection, schedule: Q04DX003 (ip), vehicle: saline 101 % of control | dose: 200.0 mg/kg/injection, schedule: Q01DX009 (ip), vehicle: saline 106 % of control | dose: 200.0 mg/kg/injection, schedule: Q04DX003 (ip), vehicle: saline 100 % of control | dose: 400.0 mg/kg/injection, schedule: Q04DX003 (ip), vehicle: saline 89 % of control

CNC(=O)Nc1cc(Cl)c(OC)cc1OC
inactive: [1] 96 % of control | [2] 95 % of control | [3] 96 % of control

C=CCN(CC=C)c1nc(N(CC)CC)nc(N(CC)CC)n1
inactive: dose: 25.6 mg/kg/injection, schedule: Q04DX002 (ip), vehicle: saline with Tween-80 91 % of control | dose: 64.0 mg/kg/injection, schedule: Q04DX002 (ip), vehicle: saline with Tween-80 97 % of control | dose: 160.0 mg/kg/injection, schedule: Q04DX002 (ip), vehicle: saline with Tween-80 102 % of control | dose: 400.0 mg/kg/injection, schedule: Q04DX002 (ip), vehicle: saline with Tween-80 112 % of control

COC(C#N)C(=N)CC#N (configuration not stated)
inactive: dose: 9.5 mg/kg/injection, schedule: Q01DX001 (ip), vehicle: saline 107 % of control | dose: 19.0 mg/kg/injection, schedule: Q01DX001 (ip), vehicle: saline 101 % of control

CC1CCCCC1C(=O)N1CCCC1 (configuration not stated)
inactive: dose: 100.0 mg/kg/injection, schedule: Q04DX002 (ip), vehicle: saline 101 % of control | dose: 200.0 mg/kg/injection, schedule: Q04DX002 (ip), vehicle: saline 105 % of control

O=C(Nc1ccc(I)cc1)Nc1cc(C(F)(F)F)ccc1Cl
inactive: [1] 100 % of control | [2] 93 % of control | [3] 88 % of control

O=C(O/N=C1\C2CCC(C2)C1Cl)c1ccc([N+](=O)[O-])cc1 (configuration not stated)
inactive: dose: 25.0 mg/kg/injection, schedule: Q01DX009 (ip), vehicle: saline with Tween-80 94 % of control | dose: 50.0 mg/kg/injection, schedule: Q01DX009 (ip), vehicle: saline with Tween-80 88 % of control | [12] 102 % of control

ClCc1cccc(CCl)c1
inactive: dose: 50.0 mg/kg/injection, schedule: Q01DX001 (ip), vehicle: saline 95 % of control | dose: 50.0 mg/kg/injection, schedule: Q01DX009 (ip), vehicle: saline sonified 103 % of control | dose: 100.0 mg/kg/injection, schedule: Q01DX001 (ip), vehicle: saline 95 % of control | dose: 100.0 mg/kg/injection, schedule: Q01DX009 (ip), vehicle: saline sonified 102 % of control | dose: 200.0 mg/kg/injection, schedule: Q01DX001 (ip), vehicle: saline 97 % of control | dose: 200.0 mg/kg/injection, schedule: Q01DX009 (ip), vehicle: saline sonified 103 % of control

CC(CCc1cccc2ccccc12)C(=O)O (configuration not stated)
inactive: [12] 103 % of control | [13] 100 % of control | [14] 105 % of control

CCn1cnc2cc(N=Cc3ccc(N(CCCl)CCCl)cc3Cl)ccc21
inactive: dose: 100.0 mg/kg/injection, schedule: Q04DX002 (ip), vehicle: Klucel (hydroxypropylcellulose) (HPC) 117 % of control | dose: 200.0 mg/kg/injection, schedule: Q04DX002 (ip), vehicle: Klucel (hydroxypropylcellulose) (HPC) 102 % of control | dose: 400.0 mg/kg/injection, schedule: Q04DX002 (ip), vehicle: Klucel (hydroxypropylcellulose) (HPC) 98 % of control

COc1cc(-c2nc3c4ccccc4c4ccccc4c3[nH]2)cc(OC)c1OC
inactive: [12] 94 % of control | [13] 96 % of control | [14] 105 % of control

CC(C)(C)NC(=O)Nc1ccc2ccccc2c1
inactive: [15] 93 % of control | [16] 89 % of control | [17] 94 % of control
